Publication PMC9600394, “Efficient Synthesis with Green Chemistry Approach of Novel Pharmacophores of Imidazole-Based Hybrids for Tumor Treatment: Mechanistic Insights from In Situ to In Silico” (Cancers, 2022)
Where two headings read alike, the source gives them in different places.

How the values were obtained:
hCA-IX [1] = target: T1, hCA-IX (Homo sapiens, UniProt Q16790); assay: In vitro inhibition of human CA-IX (p-nitrophenyl acetate, 96-well plate); assay type: biochemical; conditions: for IC50 / hCA-IX IC50 ± SEM: purified enzyme, substrate p-nitrophenyl acetate, 25 °C, µM from b1; for IC50: unit inferred, read-out: hCA-IX IC50 ± SEM; for hCA-IX IC50 ± SEM: unit not given; for Selectivity / specificity for hCA-IX (in words): hCA-IX versus hCA-II
MCF-10A = assay: MTT assay in normal breast cell line MCF-10A; conditions: for inhibition at 100 µM / IC50: Homo sapiens, MCF-10A, 48 h; for inhibition at 100 µM: read-out: MCF-10A %Inhibition; for IC50: read-out: MCF-10A IC50
Protocol: (§1) This cell line is ER, PR, and E-cadherin negative, and it lacks the growth factor receptor HER2. […] The normal human breast cell line (MCF-10A) was used as a control in the study. Cells were cultured in DMEM supplemented with 10% FBS and 1% antibiotics (100 U/mL penicillin). […] After 48 h of incubation, 20 μL of MTT solution (5 mg/mL) was pipetted into each well and incubated for another 4 h. The medium was later discarded, and the formazan precipitate was dissolved in DMSO. The absorbance of the mixtures was determined by a microplate reader at 570 nm. All the experiments were performed in triplicate, and the cytotoxicity was expressed as a percentage of cell viability and compared with untreated control cells [33]. % Viability=Absorbance of sample/Absorbance of control×100
(§2) The dose–response and IC50 values were calculated by IBM SPSS Statistics 26 software.
(§3) Simultaneously, the normal human breast epithelial cell line (MCF-10A) was used as a positive control. The MTT [3-(4,5-dimethylthiazol-2-yl)-2,5-diphenyltetrazolium bromide] assay was used to determine the decrease in cancer cell viability induced by the synthesized hybrids.

[2] = MTT assay in normal breast cell line MCF-10A; conditions: human
Protocol: as §1, §2, §3

hCA-II [3] = target: T2, hCA-II (Homo sapiens, UniProt P00918); assay: Enzyme kinetic (mechanistic) studies on hCA-II; conditions: for Type of Inhibition (hCA-II): Lineweaver–Burk / Dixon plots; for Vmaxapp (hCA-II): maximum velocity of the enzyme in the presence of inhibitors
Protocol: In vitro inhibition of human CA (CA-II, and CA-IX) was performed in 96-well plate. Each well of the 96-well plate comprised 20 µL of the test compound (0.5 mM), 20 µL of the purified enzyme (0.1 mg/mL), 140 µL of the assay buffer (HEPES–tris, 20 mM), and 20 µL of the substrate (p-Nitrophenyl acetate; prepared in methanol), making a final volume of 200 µL. The assay procedure started with the incubation of the test compound, desired enzyme, and 140 µL of buffer for 15 min. […] All the in vitro testing results, e.g., percent inhibition, and the IC50 values were analyzed by EZ-Fit, which is a curve-fitting enzyme kinetics program (Perrella Scientific Inc., Amherst, MA, USA). All kinetic graphs were plotted by GraFit program (Horley, UK). Different parameters and their values, such as the values of intercepts, slopes, correlation coefficients, and their standard error means (SEMs), were calculated by the nonlinear regression analysis using the same program (GraFit program).
Certain parameters of the assay were changed in order to determine the mode of inhibition of compounds against specific enzymes.

hCA-II [4] = target: T2, hCA-II; assay: In vitro inhibition of human CA-II (p-nitrophenyl acetate, 96-well plate); assay type: biochemical; conditions: for Inhibitory activity for hCA-II in words: compared to acetazolamide; for hCA-II IC50 ± SEM: unit not given
MDA-MB-231 = assay: MTT assay in breast cancer cell line MDA-MB-231; conditions: for inhibition at 100 µM: read-out: MDA-MB-231 %Inhibition; for viability at 100 µM: read-out: MDA-MB-231 %Viability
Protocol: as §1, §2, §3

hCA-IX [5] = target: T1, hCA-IX; assay: Enzyme kinetic (mechanistic) studies on hCA-IX; assay type: biochemical; conditions: for Type of Inhibition (hCA-IX): Lineweaver–Burk / Dixon plots; for Kmapp (hCA-IX): Michaelis–Menten constant in the presence of inhibitors; for Vmaxapp (hCA-IX): maximum velocity of the enzyme in the presence of inhibitors
[6] = Homo sapiens, MDA-MB-231, 48 h, read-out: MDA-MB-231 IC50, 48 h, MTT
[7] = purified enzyme, substrate p-nitrophenyl acetate, 25 °C, µM from b1
[8] = read-out: MDA-MB-231 IC50, 48 h, MTT

Row | SMILES | IC50 (hCA-IX [1]) [µM] | inhibition at 100 µM (MCF-10A) [%] | IC50 (MCF-10A) [µM] | Inhibitory activity for hCA-II in words (hCA-II [4]) | inhibition at 100 µM (MDA-MB-231; Homo sapiens, MDA-MB-231, 48 h) [%] | viability at 100 µM (MDA-MB-231; Homo sapiens, MDA-MB-231, 48 h) [%] | IC50 (MDA-MB-231; [6]) [µM] | melting point | Ki (hCA-IX [5]) [µM] | Type of Inhibition (hCA-IX) (hCA-IX [5]) | Kmapp (hCA-IX) (hCA-IX [5]) | Vmaxapp (hCA-IX) (hCA-IX [5]) | viability at 48 h, 100 µM [2] [%] | IC50 (hCA-II [4]) [µM] | hCA-II IC50 ± SEM (hCA-II [4]; [7]) | Selectivity / specificity for hCA-IX (in words) (hCA-IX [1]) | IC50 (MDA-MB-231; [8]) [µM] | further results
1 | Cc1ncc(C2=C(O)CCCC2=O)n1CCO [Compound 1, 3-hydroxy-2-(1-(2-hydroxyethyl)-2-methyl-1H-imidazol-5-yl) cyclohex-2-en-1-one] | 23 ± 0.5 | 13.2 | > 100 | potent inhibitory activity | 51.4 | 48.6 | 96 | 186 to 190 °C |  |  |  |  |  |  |  |  |  | Inhibitory activity for hCA-IX in words (hCA-IX [1]; compared to the standard acetazolamide): comparatively weak activity; viability at 48 h, 100 µM ([2]; MCF-10A normal breast epithelial cells): 86.8%; Ki (hCA-II [3]): 9.14 ± 0.08 µM; Type of Inhibition (hCA-II) (hCA-II [3]): competitive inhibition; Vmaxapp (hCA-II) (hCA-II [3]): 19.32; IC50 (hCA-II [4]; purified enzyme, substrate p-nitrophenyl acetate, 25 °C, unit inferred, µM from b1, read-out: hCA-II IC50 ± SEM): 11.6 ± 0.2 µM
2 | Cc1ncc(-c2c(O)[nH]c(=O)[nH]c2=O)[nH]1 [Compound 3, 6-hydroxy-5-(2-methyl-1H-imidazol-5-yl) pyrimidine-2,4(1H,3H)-dione] | 10.9 ± 0.8 | 14.3 | > 100 | weak activity | 61.2 | 38.8 | 76.1 | 215 °C (dec.) | 8.01 ± 0.01 | competitive inhibition | 0.38 | 23.01 | 85.7 | 30.7 ± 3.4 |  |  |  | 
3 | Cc1ncc(-c2c(O)[nH]c(=S)[nH]c2=O)[nH]1 [Compound 4, 6-hydroxy-5-(2-methyl-1H-imidazol-5-yl)-2-thioxo-2,3-dihydropyrimidin-4(1H)-one] | 17.1 ± 0.6 | 17.9 | > 100 | weak activity | 60.5 | 39.5 | 75.7 |  | 15.02 ± 0.04 | competitive inhibition | 0.43 | 23.01 | 82.1 | 31.1 ± 1.3 |  |  |  | 
4 | Cc1ncc(-c2c(O)[nH]c(=O)[nH]c2=O)n1CCOC(=O)c1ccccc1 [Compound 5, 2-(5-(6-hydroxy-2,4-dioxo-1,2,3,4-tetrahydropyrimidin-5-yl)-2-methyl-1H-imidazol-1-yl) ethyl benzoate] |  | 20.5 | > 100 |  | 82.1 | 17.9 | 53.6 |  |  |  |  |  | 79.5 |  | Inactive |  |  | hCA-IX IC50 ± SEM (hCA-IX [1]): Inactive; Toxicity to normal breast cells (MCF-10A) in words (MCF-10A; MTT): no toxicity; Anticancer/cytotoxic activity in MDA-MB-231 in words (MDA-MB-231; MTT): excellent anticancer/cytotoxic activity
5 | Cc1ncc(-c2c(O)n(C)c(=O)n(C)c2=O)[nH]1 [Compound 6, 6-hydroxy-1,3-dimethyl-5-(2-methyl-1H-imidazol-5-yl) pyrimidine-2,4(1H,3H)-dione] |  | 13.2 | > 100 |  | 58.4 | 41.6 | 79.4 |  |  |  |  |  | 86.8 |  | Inactive |  |  | hCA-IX IC50 ± SEM (hCA-IX [1]): Inactive
6 | Cc1ncc(-c2c(O)[nH]c(=S)[nH]c2=O)n1CCOC(=O)c1ccccc1 [Compound 7, 2-(5-(6-hydroxy-4-oxo-2-thioxo-1,2,3,4-tetrahydropyrimidin-5-yl)-2-methyl-1H-imidazol-1-yl) ethyl benzoate] | 9.6 ± 0.2 | 13.2 | > 100 |  | 69.2 | 30.8 | 64 | 225 to 230 °C | 7.32 ± 0.02 | competitive inhibition |  | 23.01 | 86.8 |  | Inactive | selective inhibitors of hCA-IX | 64 | Inhibitory activity for hCA-IX in words (hCA-IX [1]): strong inhibitory activity
7 | Cc1ncc(-c2c(O)[nH]c(=O)[nH]c2=O)n1CCO [Compound 8, 6-hydroxy-5-(1-(2-hydroxyethyl)-2-methyl-1H-imidazol-5-yl) pyrimidine-2,4 (1H, 3H)-dione] | 32.2 ± 1 | 15.5 | > 100 |  | 77.8 | 22.2 | 55.6 |  |  |  |  |  | 84.5 |  | Inactive | selective inhibitors of hCA-IX |  | Inhibitory activity for hCA-IX in words (hCA-IX [1]): comparatively weak activity
8 | Cc1ncc(-c2c(O)[nH]c(=S)[nH]c2=O)n1CCO [Compound 9, 6-hydroxy-5-(1-(2-hydroxyethyl)-2-methyl-1H-imidazol-5-yl)-2-thioxo-2,3-dihydropyrimidin-4(1H)-one] | 19.9 ± 0.8 | 13.2 | > 100 | weak activity | 73.5 | 26.5 | 58.6 |  | 17.02 ± 0.02 | competitive inhibition | 0.47 | 23.01 | 84.5 | 27.5 ± 1.3 |  |  | 58.6 | 
9 | Cc1ncc(-c2c(O)n(C)c(=O)n(C)c2=O)n1CCO [Compound 10, 6-hydroxy-5-(1-(2-hydroxyethyl)-2-methyl-1H-imidazol-5-yl)-1,3-dimethylpyrimidine-2,4(1H,3H)-dione] | 14.8 ± 0.1 | 15.1 | > 100 |  | 75.5 | 24.5 | 60.9 | 163 to 165 °C | 13.24 ± 0.03 | competitive inhibition | 0.40 | 23.01 | 84.9 |  | Inactive | selective inhibitors of hCA-IX |  | 
10 | Cc1ncc(-c2c(O)n(C)c(=O)n(C)c2=O)n1CCOC(=O)c1ccccc1 [Compound 11, 2-(5-(6-hydroxy-1,3-dimethyl-2,4-dioxo-1,2,3,4-tetrahydropyrimidin-5-yl)-2-methyl-1H-imidazol-1-yl) ethyl benzoate] | 11.9 ± 0.3 | 12.1 | > 100 | potent inhibitory activity | 68.2 | 31.8 | 63.1 | 180 to 185 °C | 8.32 ± 0.05 | competitive inhibition | 0.42 | 23.01 | 87.9 | 15.3 ± 0.3 |  | selective inhibitors of hCA-IX | 63.1 | Ki (hCA-II [3]): 12.58 ± 0.04 µM; Type of Inhibition (hCA-II) (hCA-II [3]): competitive inhibition; Kmapp (hCA-II) (hCA-II [3]; Michaelis–Menten constant in the presence of inhibitors): 0.14; Vmaxapp (hCA-II) (hCA-II [3]): 19.32
